Like-named read-outs stand apart in the source and are kept apart here.
Key:
[1] = target: WRN helicase (Homo sapiens (Human), UniProt Q14191); experiment: In vitro enzymatic activity assay on WRN helicase (DNA dependent ATPase assay, ADP-Glo); type: biochemical; conditions: geometric means of at least 2 determinations; read-out: WRN ATPase Activity (IC50)
How it was run: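 DNA-dependent ATPase activity was measured by ADP-Glo luminescent ADP detection after a 30-min room-temperature reaction. The reaction contained 10 nM WRN (residues N517-P1238), 0.2 nM FLAP26 and 300 µM ATP at pH 7.5 with 2 mM MgCl2. Compounds were tested as 10-point half-log series in duplicate; IC50 values are geometric means from at least two independent experiments.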

[2] = test system: SW48 cells; experiment: Proliferation assay SW48 (CellTiterGlo, 96 hours)
Protocol: The WRN-knockdown insensitive colon carcinoma cell line DLD-1 (RRID: CVCL_0248) was obtained from the Korean Cell Line Bank (KCLB), and used to generate a derivative in which the endogenous WRN gene copies were knocked out by CRISPR-mediated editing using standard CRISPR methods. The resulting cell line, DLD1-WRN—KO, was used to assess potential off-target compound effects.
All cells were maintained at 37° C. in a humidified 5% CO2 incubator.
For data analysis, the assay background signal that was determined in wells containing medium, but no cells, was subtracted from all other data points prior to further calculations. The extent of growth inhibition and potential cell kill was assessed by comparing the ATP levels (measured using CellTiterGlo, Promega) in compound-treated cells with those present at the time of compound addition. […] 100%, 0% and −100% signify absence of growth inhibition, growth stasis, and complete cell kill, respectively. Compound concentrations leading to half-maximal growth inhibition (G150) and residual cell viability at the highest tested compound concentration (Data (cmax), expressed in percent) were routinely calculated. Data analysis can also be carried out using commercially available software designed to derive IC50 values using 4-parameter fits (e.g. GraphPad Prism, XL fit). The reported GI50 values are the geometrical means of at least 2 independent replicates.

[3] = test system: DLD1-WRN-KO cells; experiment: Proliferation assay DLD1-WRN-KO (CellTiterGlo, 96 hours; off-target effects); conditions: read-out: Proliferation Assay DLD1-WRN-KO (GI50)
[4] = Homo sapiens, SW48, read-out: Proliferation Assay SW48 (GI50)

Sequence of WRN helicase (Q14191 517-1238): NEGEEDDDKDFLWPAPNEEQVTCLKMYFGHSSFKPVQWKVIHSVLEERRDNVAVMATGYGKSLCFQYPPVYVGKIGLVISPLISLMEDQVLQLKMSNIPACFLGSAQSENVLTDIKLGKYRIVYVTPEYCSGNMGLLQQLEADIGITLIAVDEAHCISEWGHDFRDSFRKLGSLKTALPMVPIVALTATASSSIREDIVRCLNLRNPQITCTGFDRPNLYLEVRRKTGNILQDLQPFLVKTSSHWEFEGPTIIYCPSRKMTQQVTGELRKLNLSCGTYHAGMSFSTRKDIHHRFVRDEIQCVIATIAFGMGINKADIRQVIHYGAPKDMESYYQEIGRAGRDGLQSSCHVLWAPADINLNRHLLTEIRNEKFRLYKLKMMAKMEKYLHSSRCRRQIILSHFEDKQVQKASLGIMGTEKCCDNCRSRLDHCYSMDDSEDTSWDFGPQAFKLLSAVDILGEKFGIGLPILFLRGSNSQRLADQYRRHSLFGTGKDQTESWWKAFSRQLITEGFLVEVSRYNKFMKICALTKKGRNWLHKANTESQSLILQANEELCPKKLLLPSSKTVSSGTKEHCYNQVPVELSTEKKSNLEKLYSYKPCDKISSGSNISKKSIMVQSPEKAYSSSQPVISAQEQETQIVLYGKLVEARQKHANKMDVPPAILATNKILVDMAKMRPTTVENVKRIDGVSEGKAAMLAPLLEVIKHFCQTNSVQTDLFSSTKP

IC50 [1] [nM]	GI50 [2, 4] [nM]	GI50 ([3]; Homo sapiens) [nM]	GI50 ([2]; read-out: Proliferation Assay SW48 (GI50), SW48 cell line, geometric means of at least 2 determinations) [nM]	GI50 ([3]; DLD1-WRN-KO cell line, geometric means of at least 2 determinations) [nM]	Compound
110	60	> 10000	–	–	CCc1c(N2CCN(C(=O)c3ncnc(C)c3O)C[C@@H]2C)c(=O)n2nc(C3=CCOCC3)nc2n1CC(=O)Nc1ccc(C(F)(F)F)cc1Cl [Example 87, (S)—N-(2-chloro-4-(trifluoromethyl)phenyl)-2-(2-(3,6-dihydro-2H-pyran-4-yl)-5-ethyl-6-(4-(5-hydroxy-6-methylpyrimidine-4-carbonyl)-2-methylpiperazin-1-yl)-7-oxo-[1,2,4]triazolo[1,5-a]pyrimidin-4(7H)-yl)acetamide]
180	280	> 10000	–	–	CCc1c(N2CCN(C(=O)c3ncccc3O)CC2)c(=O)n2nc(C3=CCOCC3)nc2n1CC(=O)Nc1cc(F)c(C(F)(F)F)nc1Cl [Example 99, N-(2-chloro-5-fluoro-6-(trifluoromethyl)pyridin-3-yl)-2-(2-(3,6-dihydro-2H-pyran-4-yl)-5-ethyl-6-(4-(3-hydroxypicolinoyl)piperazin-1-yl)-7-oxo-[1,2,4]triazolo[1,5-a]pyrimidin-4(7H)-yl)acetamide]
40	30	> 10000	–	–	CCc1c(N2CCN(C(=O)c3ncnc(C)c3O)CC2)c(=O)n2nc(C3=CCOCC3)nc2n1CC(=O)Nc1ccc(S(F)(F)(F)(F)F)cc1Cl [Example 51, N-(2-chloro-4-(pentafluorosulfanyl)phenyl)-2-(2-(3,6-dihydro-2H-pyran-4-yl)-5-ethyl-6-(4-(5-hydroxy-6-methylpyrimidine-4-carbonyl)piperazin-1-yl)-7-oxo-[1,2,4]triazolo[1,5-a]pyrimidin-4(7H)-yl)acetamide]
140	480	> 10000	–	–	CCc1c(N2CCN(C(=O)c3ncccc3O)CC2)c(=O)n2nc(N3CCCC(F)C3)nc2n1CC(=O)Nc1ccc(C(F)(F)F)cc1C (racemic) [Example 14, rac-2-(5-ethyl-2-(3-fluoropiperidin-1-yl)-6-(4-(3-hydroxypicolinoyl)piperazin-1-yl)-7-oxo-[1,2,4]triazolo[1,5-a]pyrimidin-4(7H)-yl)-N-(2-methyl-4-(trifluoromethyl)phenyl)acetamide]
230	320	> 10000	–	–	CCc1c(N2CCN(C(=O)c3ncnc(C)c3O)CC2)c(=O)n2nc(C3=CCCCO3)nc2n1CC(=O)Nc1ccc(C(F)(F)F)nc1C [Example 31, 2-(2-(3,4-dihydro-2H-pyran-6-yl)-5-ethyl-6-(4-(5-hydroxy-6-methylpyrimidine-4-carbonyl)piperazin-1-yl)-7-oxo-[1,2,4]triazolo[1,5-a]pyrimidin-4(7H)-yl)-N-(2-methyl-6-(trifluoromethyl)pyridin-3-yl)acetamide]
100	–	–	50	> 10000	CCc1c(N2CCN(C(=O)c3nccc(Cl)c3O)CC2)c(=O)n2nc(C3=CC[C@H](OC)CC3)nc2n1CC(=O)Nc1ccc(C(F)(F)F)nc1Cl (single isomer, unassigned) [Example 24b]
70	110	> 10000	–	–	CCc1c(N2CCN(C(=O)c3nccc(Cl)c3O)CC2)c(=O)n2nc(N3CCC[C@H](F)C3)nc2n1CC(=O)Nc1ccc(C(F)(F)F)cc1C [Example 85, (S)-2-(6-(4-(4-chloro-3-hydroxypicolinoyl)piperazin-1-yl)-5-ethyl-2-(3-fluoropiperidin-1-yl)-7-oxo-[1,2,4]triazolo[1,5-a]pyrimidin-4(7H)-yl)-N-(2-methyl-4-(trifluoromethyl)phenyl)acetamide]
50	240	6100	–	–	CCc1c(N2CCN(S(=O)(=O)c3ncccc3O)CC2)c(=O)n2nc(C3=CCOCC3)nc2n1CC(=O)Nc1ccc(C(F)(F)F)cc1Cl [Example 137, N-(2-chloro-4-(trifluoromethyl)phenyl)-2-(2-(3,6-dihydro-2H-pyran-4-yl)-5-ethyl-6-(4-((3-hydroxypyridin-2-yl)sulfonyl)piperazin-1-yl)-7-oxo-[1,2,4]triazolo[1,5-a]pyrimidin-4(7H)-yl)acetamide]
60	30	> 10000	–	–	CCc1c(N2CCN(C(=O)c3ncnc(C)c3O)CC2)c(=O)n2nc(C3=CCOCC3)nc2n1CC(=O)Nc1ccc(S(F)(F)(F)(F)F)cc1C [Example 100, 2-(2-(3,6-dihydro-2H-pyran-4-yl)-5-ethyl-6-(4-(5-hydroxy-6-methylpyrimidine-4-carbonyl)piperazin-1-yl)-7-oxo-[1,2,4]triazolo[1,5-a]pyrimidin-4(7H)-yl)-N-(2-methyl-4-(pentafluorosulfanyl)phenyl)acetamide]
1180	690	> 10000	–	–	CCc1c(N2CCN(C(=O)c3ncccc3O)CC2)c(=O)n2nc(C3=CNCCC3)nc2n1CC(=O)Nc1ccc(C(F)(F)F)cc1C [Example 109, 2-(5-ethyl-6-(4-(3-hydroxypicolinoyl)piperazin-1-yl)-7-oxo-2-(1,4,5,6-tetrahydropyridin-3-yl)-[1,2,4]triazolo[1,5-a]pyrimidin-4(7H)-yl)-N-(2-methyl-4-(trifluoromethyl)phenyl)acetamide]
370	760	> 10000	–	–	CCc1c(N2CCN(C(=O)c3ncnc(C)c3O)C[C@H]2C)c(=O)n2nc(C3=CCOCC3)nc2n1CC(=O)Nc1ccc(C(F)(F)F)cc1Cl [Example 88, (R)—N-(2-chloro-4-(trifluoromethyl)phenyl)-2-(2-(3,6-dihydro-2H-pyran-4-yl)-5-ethyl-6-(4-(5-hydroxy-6-methylpyrimidine-4-carbonyl)-2-methylpiperazin-1-yl)-7-oxo-[1,2,4]triazolo[1,5-a]pyrimidin-4(7H)-yl)acetamide]
120	270	> 10000	–	–	CCc1c(N2CCN(C(=O)c3nc(C)ncc3O)CC2)c(=O)n2nc(C3=CCOCC3)nc2n1CC(=O)Nc1ccc(C(F)(F)F)cc1C [Example 68, 2-(2-(3,6-dihydro-2H-pyran-4-yl)-5-ethyl-6-(4-(5-hydroxy-2-methylpyrimidine-4-carbonyl)piperazin-1-yl)-7-oxo-[1,2,4]triazolo[1,5-a]pyrimidin-4(7H)-yl)-N-(2-methyl-4-(trifluoromethyl)phenyl)acetamide]
80	70	> 10000	–	–	CCc1c(N2CCN(C(=O)c3ncnc(C)c3O)CC2)c(=O)n2nc(C3=CCOCC3)nc2n1CC(=O)Nc1ccc(C(F)(F)F)c(F)c1C [Example 93, 2-(2-(3,6-dihydro-2H-pyran-4-yl)-5-ethyl-6-(4-(5-hydroxy-6-methylpyrimidine-4-carbonyl)piperazin-1-yl)-7-oxo-[1,2,4]triazolo[1,5-a]pyrimidin-4(7H)-yl)-N-(3-fluoro-2-methyl-4-(trifluoromethyl)phenyl)acetamide]
50	60	> 10000	–	–	CCc1c(N2CCN(C(=O)c3nccc(Cl)c3O)CC2)c(=O)n2nc(C3=CCOCC3)nc2n1CC(=O)Nc1cc(F)c(C(F)(F)F)cc1C [Example 95, 2-(6-(4-(4-chloro-3-hydroxypicolinoyl)piperazin-1-yl)-2-(3,6-dihydro-2H-pyran-4-yl)-5-ethyl-7-oxo-[1,2,4]triazolo[1,5-a]pyrimidin-4(7H)-yl)-N-(5-fluoro-2-methyl-4-(trifluoromethyl)phenyl)acetamide]

— patent US11878973B2, “Bicyclic compounds and their uses” (NOVARTIS AG, priority 2021, dated 2024)
